Test results taken from patent US20040059140A1, “14(15)-unsaturated 15- and/or 16-substituted androgens with mixed androgen-progrestational profile” (priority 2000, published 2004).

How the values were obtained:
[1] = molecular target: T1, human androgen receptor (hAR) (Homo sapiens, UniProt P10275); test: Androgenic activity (transactivation in CHO cells transfected with hAR, MMTV-luciferase, compared with 5α-dihydrotestosterone); format: cell-based; parameters: key: (−) very weak activity found; (+) activity found; (++) high activity; (+++) excellent activity; conditions: rated by scheme
T1 construct: expressed in transfected cells; host or cells: CHO (Chinese hamster ovary) cells
T1 sequence (P10275 1-920): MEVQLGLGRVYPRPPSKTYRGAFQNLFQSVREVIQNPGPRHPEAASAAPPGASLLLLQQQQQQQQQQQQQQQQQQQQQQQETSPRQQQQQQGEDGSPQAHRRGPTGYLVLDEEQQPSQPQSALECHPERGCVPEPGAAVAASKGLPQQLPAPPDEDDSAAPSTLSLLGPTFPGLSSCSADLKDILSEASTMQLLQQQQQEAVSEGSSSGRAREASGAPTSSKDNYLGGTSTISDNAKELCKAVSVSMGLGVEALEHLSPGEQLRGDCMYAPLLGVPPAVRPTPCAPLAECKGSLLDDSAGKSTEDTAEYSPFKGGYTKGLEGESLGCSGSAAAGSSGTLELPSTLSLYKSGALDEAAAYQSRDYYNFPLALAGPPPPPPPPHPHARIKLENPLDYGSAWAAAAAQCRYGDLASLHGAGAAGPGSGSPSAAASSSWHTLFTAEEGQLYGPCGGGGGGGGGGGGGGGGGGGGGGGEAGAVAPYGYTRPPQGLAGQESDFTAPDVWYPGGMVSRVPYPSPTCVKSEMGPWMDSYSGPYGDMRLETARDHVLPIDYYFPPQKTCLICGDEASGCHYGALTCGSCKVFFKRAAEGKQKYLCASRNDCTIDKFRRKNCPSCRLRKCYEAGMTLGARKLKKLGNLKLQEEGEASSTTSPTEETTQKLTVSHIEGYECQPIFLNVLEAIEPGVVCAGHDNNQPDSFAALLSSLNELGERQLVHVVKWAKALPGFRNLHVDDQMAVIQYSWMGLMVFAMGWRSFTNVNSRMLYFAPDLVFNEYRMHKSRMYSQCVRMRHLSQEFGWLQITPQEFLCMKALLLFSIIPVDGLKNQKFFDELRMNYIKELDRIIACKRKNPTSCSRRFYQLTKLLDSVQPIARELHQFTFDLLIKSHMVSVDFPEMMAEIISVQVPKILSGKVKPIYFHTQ
From the text: Androgenic activity can be measured in various ways. Thus, the potency of androgens can be determined in vitro using the cytoplasmic androgen receptor from human breast tumor cells (MCF-7 cell line); see Bergink, E. W. et al, Comparison of the receptor binding properties of nandrolone and testosterone under in vitro and in vivo conditions, J. Steroid Biochem. 22, 831-836 (1985). […] The transactivative androgen activity of the compounds of the invention can be measured, e.g. in Chinese hamster ovary cells (CHO) transfected with the human androgen receptor (hAR), in combination with a mouse mammary tumor virus (MMTV), and luciferase receptor gene (incubation time 16 h, temperature 37° C.) and compared with the activity of 5α-dihydrotestosterone [according to the procedure described by Schoonen, W. G. E. J. et al, Analyt. Biochem. 261, 222-224 (1998)]. For the in vivo potency determination of androgens the classical Hershberger test can be used. In this test the androgenic (increase in prostate weight) and anabolic activities [increase of the musculus levator ani (MLA)] of a compound are tested in immature castrated rats after daily administration for 7 days; see Hershberger, L. G. et al, Myotrophic activity of 19-Nortestosterone and other steroids determined by modified levator ani muscle method, Proceedings of the society for experimental biology and medicine 83, 175-180 (1953). Additionally, the effect of an androgenic compound on LH suppression can be tested in mature castrated rats according to Kumar, N. et al, The biological activity of 7alpha-methyl-19-nortestosteione is not amplified in male reproductive tract as is that of testosterone, Endocrinology 130, 3677-3683 (1992).
(§1) The compounds according to the invention were tested for androgenic activity and for progestational activity (the procedures for which have been described above) and rated according to the following scheme: […]

[2] = molecular target: T2, human progesterone receptor B (hPRB) (Homo sapiens, UniProt P06401); test: Progestational activity (transactivation in CHO cells transfected with hPRB, MMTV-luciferase, compared with (16α)-16-ethyl-21-hydroxy-19-norpregn-4-ene-3,20-dione); format: cell-based; parameters: key: (−) very weak activity found; (+) activity found; (++) high activity; (+++) excellent activity; conditions: rated by scheme
T2 construct: expressed in transfected cells; host or cells: CHO (Chinese hamster ovary) cells
T2 sequence (P06401 1-933): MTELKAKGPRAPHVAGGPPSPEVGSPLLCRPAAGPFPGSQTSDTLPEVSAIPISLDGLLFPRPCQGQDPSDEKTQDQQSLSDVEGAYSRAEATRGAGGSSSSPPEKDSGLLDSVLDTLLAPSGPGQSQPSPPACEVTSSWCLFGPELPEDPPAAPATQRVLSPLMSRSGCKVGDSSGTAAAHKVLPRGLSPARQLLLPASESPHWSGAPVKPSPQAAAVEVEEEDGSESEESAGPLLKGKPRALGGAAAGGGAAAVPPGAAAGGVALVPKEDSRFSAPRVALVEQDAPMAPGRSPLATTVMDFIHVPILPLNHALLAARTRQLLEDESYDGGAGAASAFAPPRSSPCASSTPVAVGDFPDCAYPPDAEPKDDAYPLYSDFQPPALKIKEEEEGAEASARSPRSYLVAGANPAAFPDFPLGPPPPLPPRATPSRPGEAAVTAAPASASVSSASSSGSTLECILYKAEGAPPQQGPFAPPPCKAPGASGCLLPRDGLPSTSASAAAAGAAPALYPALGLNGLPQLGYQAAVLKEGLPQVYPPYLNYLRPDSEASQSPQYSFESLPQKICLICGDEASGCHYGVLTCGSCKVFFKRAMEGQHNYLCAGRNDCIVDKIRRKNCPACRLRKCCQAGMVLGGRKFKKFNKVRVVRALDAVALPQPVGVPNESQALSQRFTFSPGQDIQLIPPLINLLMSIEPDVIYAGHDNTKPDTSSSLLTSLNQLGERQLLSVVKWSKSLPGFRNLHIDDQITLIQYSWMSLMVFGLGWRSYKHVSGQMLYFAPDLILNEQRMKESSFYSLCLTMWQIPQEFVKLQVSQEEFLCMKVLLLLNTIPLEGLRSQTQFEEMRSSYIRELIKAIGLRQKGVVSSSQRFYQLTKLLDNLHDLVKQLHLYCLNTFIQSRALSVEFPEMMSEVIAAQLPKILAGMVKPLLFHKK
Description: The transactivative progestagenic activity of the compounds of the invention can be measured, e.g. in Chinese hamster ovary cells (CHO) transfected with the human progesterone receptor B (hPRB), in combination with a mouse mammary tumor virus (MMTV), and luciferase receptor gene (incubation time 16 h, temperature 37° C.) and compared with the activity of (16α)-16-ethyl-21-hydroxy-19-norpregn-4-ene-3,20-dione [according to the procedure described by Schoonen, W. G. E. J. et al, Analyt. Biochem. 261, 222-224 (1998)].
as §1

| SMILES | melting point [°C] | Androgenic activity [1] | Progestational activity [2] |
| --- | --- | --- | --- |
| CC1=C2[C@H]3[C@H](CC[C@]2(C)[C@@H](O)C1)[C@H]1CCC(=O)C=C1C[C@H]3C [Example 1, (7α,17β)-17-Hydroxy-7,15-dimethylestra-4,14-dien-3-one] | 164 to 167 | ++ | ++ |
| CCC1=C2[C@H]3[C@H](CC[C@]2(C)[C@@H](O)C1)[C@H]1CCC(=O)C=C1C[C@H]3C [Example 2, (7α,17β)-15-Ethyl-17-hydroxy-7-methylestra-4,14-dien-3-one] |  | + | ++ |
| CC[C@@H]1CC2=CC(=O)CC[C@@H]2[C@H]2CC[C@@]3(C)C(=C(C)C[C@@H]3O)[C@H]12 [Example 3, (7α,17β)-7-Ethyl-17-hydroxy-15-methylestra-4,14-dien-3-one] |  | ++ | + |
| CCC1=C2[C@@H]3[C@H](CC)CC4=CC(=O)CC[C@@H]4[C@H]3CC[C@]2(C)[C@@H](O)C1 [Example 4, (7α,17β)-7,15-Diethyl-17-hydroxyestra-4,14-dien-3-one] |  | + | + |
| CC[C@]12CC[C@H]3[C@H](C1=C(C)C[C@@H]2O)[C@H](C)CC1=CC(=O)CC[C@@H]13 [Example 5, (7α,17β)-13-Ethyl-17-hydroxy-7,15-dimethylgona-4,14-dien-3-one] |  | ++ | + |
| C[C@@H]1C=C2[C@@H]3CCC4=CC(=O)CC[C@@H]4[C@H]3CC[C@]2(C)[C@H]1O [Example 6a, (16α,17β)-17-Hydroxy-16-methylestra-4,14-dien-3-one] |  | + | + |
| C[C@H]1C=C2[C@@H]3CCC4=CC(=O)CC[C@@H]4[C@H]3CC[C@]2(C)[C@H]1O [Example 6b, (16β,17β)-17-hydroxy-16-methylestra-4,14-dien-3-one] |  | ++ | + |
| C[C@@H]1C=C2[C@H]3[C@H](CC[C@]2(C)[C@H]1O)[C@H]1CCC(=O)C=C1C[C@H]3C [Example 7a, (7α,16α,17β)-17-Hydroxy-7,16-dimethylestra-4,14-dien-3-one] |  | ++ | + |
| CC[C@@H]1CC2=CC(=O)CC[C@@H]2[C@H]2CC[C@@]3(C)C(=C[C@@H](C)[C@@H]3O)[C@H]12 [Example 7b, (7α,16α,17β)-17-Hydroxy-7-ethyl-16-metliylestra-4,14-dien-3-one] |  | ++ | + |
| C=C[C@@H]1CC2=CC(=O)CC[C@@H]2[C@H]2CC[C@@]3(C)C(=C[C@@H](C)[C@@H]3O)[C@@H]21 [Example 7c, (7α,16α,17β)-17-Hydroxy-16-methyl-7-vinylestra-4,14-dien-3-one] |  | ++ | + |
| CC[C@@H]1CC2=C(CCC(=O)C2)[C@H]2CC[C@@]3(C)C(=C(C)C[C@@H]3O)[C@H]12 [Example 8a, (7α,17β)-7-Ethyl-17-hydroxy-15-methylestra-5(10),14-dien-3-one] |  | Prodrug | Prodrug |
| CC[C@@H]1CC2=C(CC[C@@H](O)C2)[C@H]2CC[C@@]3(C)C(=C(C)C[C@@H]3O)[C@H]12 [Example 8b, (3α,7α,17β)-7-ethyl-15-methylestra-5(10),14-diene-3,17-diol] |  | Prodrug | Prodrug |
| CC[C@@H]1CC2=C(CC[C@H](O)C2)[C@H]2CC[C@@]3(C)C(=C(C)C[C@@H]3O)[C@H]12 [Example 8c, (3β,7α,17β)-7-ethyl-15-methylestra-5 (10),14-diene-3,17-diol] |  | Prodrug | Prodrug |
| C[C@@H]1CC2=CC(=O)CC[C@@H]2[C@H]2CC[C@@]3(C)C(=CC[C@@H]3O)[C@@H]21 [Reference compound (Segaloff comp.*), (7α,17β)-7-methyl-17-hydroxyestra-4,14-dien-3-one, reference compound] |  | +++ | − |
